Source: patent US6420405B2, “Pharmaceutical composition for angiotensin II-mediated diseases” (Takeda Chemical Industries, Ltd., priority 1993, dated 2002)

What was measured:
Assay type in all cases: in vivo, rat
[1] = system: Spontaneously Hypertensive Rats (SHR); test: Antihypertensive activity in SHR by co-administration with a diuretic drug (Test Example 1, tail cuff); details: for blood pressure, 1 week / blood pressure, 2 weeks / blood pressure, 1 day: 5 hr after administration; for blood pressure, 1 week / blood pressure, 2 weeks / blood pressure, 1 day / blood pressure, Before admin.: male SHR; for blood pressure, Before admin.: before administration (baseline); for antihypertensive action: SHR
Experimental: Antihypertensive Activity in Spontaneously Hypertensive Rats (SHR) by the Co-administration with a Diuretic Drug Method: […] The respective groups were administered orally with the compound 1(0.1 or 1 mg/kg,p.o.) or HCT (10 mg/kg, p.o.) alone or both drugs simultaneously once a day for two weeks.

[2] = system: Spontaneously Hypertensive Rats (SHR); test: Antihypertensive activity in SHR by co-administration with a calcium antagonistic drug (Test Example 2, tail cuff); details: for blood pressure, 1 week / blood pressure, 2 weeks / blood pressure, 1 day: 5 hr after administration; for blood pressure, 1 week / blood pressure, 2 weeks / blood pressure, 1 day / blood pressure, Before admin.: male SHR; for blood pressure, Before admin.: before administration (baseline)
Experimental: Antihypertensive Activity in Spontaneously Hypertensive Rats (SHR) by the Co-administration with a Calcium Antagonistic Drug
Method: Male SHR of 20 week old were divided into six groups (five animals per group). The respective groups were administered orally with the compound 1 (0.1 or 1 mg/kg, p.o.) or MDP (3 mg/kg, p.o.) alone or with a mixture of them once a day for two weeks. On the first, 7th and 14th day at 5 hr after the administration, blood pressure of each test animal was measured by the tail cuff method under unanesthesia.

[3] = system: Spontaneously Hypertensive Rats (SHR); test: Antihypertensive activity in SHR by co-administration with a diuretic drug (Test Example 3, compound 2, tail cuff); details: for blood pressure, 1 week / blood pressure, 2 weeks / blood pressure, 1 day: 5 hr after administration; for blood pressure, 1 week / blood pressure, 2 weeks / blood pressure, 1 day / blood pressure, Before admin.: male SHR; for blood pressure, Before admin.: before administration (baseline); for antihypertensive action: SHR
Method: Method: Male SHR of 20 week old were divided into 6 groups (five animals in one group). The respective groups were administered orally with the compound 2 (0.1 or 1 mg/kg,p.o.) or HCT (10 mg/kg, p.o.) alone or both drugs simultaneously once a day for two weeks. On the first, 7th and 14th day at 5 hr after the administration, blood pressure of each test animal was measured by the tail cuff method under unanesthesia.

CCOc1nc2cccc(C(=O)OC(C)OC(=O)OC3CCCCC3)c2n1Cc1ccc(-c2ccccc2-c2nnn[nH]2)cc1 (racemic) [Cpd. 1, (±)-1-(cyclohexyloxycarbonyloxy)ethyl 2-ethoxy-1-[[2′-(1H-tetrazol-5-yl)biphenyl-4-yl]methyl]-1H-benzimidazole-7-carboxylate]
blood pressure, 1 week ([1]; Cpd. 1 0.1 mg/kg/day p.o.): 155 ± 3 mmHg
blood pressure, 2 weeks ([1]; Cpd. 1 0.1 mg/kg/day p.o.): 162 ± 3 mmHg
blood pressure, 1 day ([1]; Cpd. 1 0.1 mg/kg/day p.o.): 161 ± 5 mmHg
blood pressure, Before admin. ([1]; Cpd. 1 0.1 mg/kg/day p.o.): 183 ± 2 mmHg
blood pressure, 1 week ([1]; Cpd. 1 1 mg/kg/day p.o.): 138 ± 2 mmHg
blood pressure, 2 weeks ([1]; Cpd. 1 1 mg/kg/day p.o.): 135 ± 3 mmHg
blood pressure, 1 day ([1]; Cpd. 1 1 mg/kg/day p.o.): 153 ± 5 mmHg
blood pressure, Before admin. ([1]; Cpd. 1 1 mg/kg/day p.o.): 186 ± 2 mmHg
antihypertensive action ([1]; compound 1 alone, 0.1 and 1 mg/kg/day): dose dependent antihypertensive action
blood pressure, 1 week ([2]; Cpd. 1 0.1 mg/kg/day p.o.): 158 ± 4 mmHg
blood pressure, 2 weeks ([2]; Cpd. 1 0.1 mg/kg/day p.o.): 160 ± 4 mmHg
blood pressure, 1 day ([2]; Cpd. 1 0.1 mg/kg/day p.o.): 157 ± 2 mmHg
blood pressure, Before admin. ([2]; Cpd. 1 0.1 mg/kg/day p.o.): 190 ± 2 mmHg
blood pressure, 1 week ([2]; Cpd. 1 1 mg/kg/day p.o.): 131 ± 13 mmHg
blood pressure, 2 weeks ([2]; Cpd. 1 1 mg/kg/day p.o.): 142 ± 4 mmHg
blood pressure, 1 day ([2]; Cpd. 1 1 mg/kg/day p.o.): 148 ± 3 mmHg
blood pressure, Before admin. ([2]; Cpd. 1 1 mg/kg/day p.o.): 196 ± 3 mmHg
antihypertensive effect ([2]; compound 1 alone, 0.1 and 1 mg/kg/day, SHR): dose dependent antihypertensive effect

NS(=O)(=O)c1cc2c(cc1Cl)NCNS2(=O)=O [HCT, hydrochlorothiazide, reference compound]
blood pressure, 1 week ([1]; HCT 10 mg/kg/day p.o.): 177 ± 3 mmHg
blood pressure, 2 weeks ([1]; HCT 10 mg/kg/day p.o.): 181 ± 2 mmHg
blood pressure, 1 day ([1]; HCT 10 mg/kg/day p.o.): 178 ± 3 mmHg
blood pressure, Before admin. ([1]; HCT 10 mg/kg/day p.o.): 186 ± 3 mmHg
antihypertensive action ([1]; HCT alone, 10 mg/kg/day, p.o.): did not show antihypertensive action
blood pressure, 1 week ([3]; HCT 10 mg/kg/day p.o.): 190 ± 5 mmHg
blood pressure, 2 weeks ([3]; HCT 10 mg/kg/day p.o.): 195 ± 3 mmHg
blood pressure, 1 day ([3]; HCT 10 mg/kg/day p.o.): 188 ± 5 mmHg
blood pressure, Before admin. ([3]; HCT 10 mg/kg/day p.o.): 206 ± 5 mmHg
antihypertensive action ([3]; HCT alone, 10 mg/kg/day, p.o.): did not show antihypertensive action

CCOc1nc2cccc(C(=O)O)c2n1Cc1ccc(-c2ccccc2-c2nc(=O)o[nH]2)cc1 [Cpd. 2, 2-ethoxy-1-[[2′-(2,5-dihydro-5-oxo-1,2,4-oxadiazole-3-yl)biphenyl-4-yl]methyl]-1H-benzimidazole-7-carboxylic acid]
blood pressure, 1 week ([3]; Cpd. 2 0.1 mg/kg/day p.o.): 182 ± 6 mmHg
blood pressure, 2 weeks ([3]; Cpd. 2 0.1 mg/kg/day p.o.): 191 ± 8 mmHg
blood pressure, 1 day ([3]; Cpd. 2 0.1 mg/kg/day p.o.): 187 ± 6 mmHg
blood pressure, Before admin. ([3]; Cpd. 2 0.1 mg/kg/day p.o.): 215 ± 5 mmHg
blood pressure, 1 week ([3]; Cpd. 2 1 mg/kg/day p.o.): 161 ± 4 mmHg
blood pressure, 2 weeks ([3]; Cpd. 2 1 mg/kg/day p.o.): 165 ± 3 mmHg
blood pressure, 1 day ([3]; Cpd. 2 1 mg/kg/day p.o.): 175 ± 5 mmHg
blood pressure, Before admin. ([3]; Cpd. 2 1 mg/kg/day p.o.): 219 ± 7 mmHg
antihypertensive action ([3]; compound 2 alone, 0.1 and 1 mg/kg/day): dose dependent antihypertensive action

COC(=O)C1=C(C)NC(C)=C(C(=O)OCCN2CCN(C(c3ccccc3)c3ccccc3)CC2)C1c1cccc([N+](=O)[O-])c1 (centres unmarked) [MDP, manidipine, reference compound]
blood pressure, 1 week ([2]; MDP 3 mg/kg/day p.o.): 132 ± 5 mmHg
blood pressure, 2 weeks ([2]; MDP 3 mg/kg/day p.o.): 136 ± 7 mmHg
blood pressure, 1 day ([2]; MDP 3 mg/kg/day p.o.): 157 ± 2 mmHg
blood pressure, Before admin. ([2]; MDP 3 mg/kg/day p.o.): 190 ± 5 mmHg
